Assay results: ChEMBL document CHEMBL4420062, “Tfpi inhibitors and methods of use” (2013)
Where a SMILES comes first, the peptide text is derived from it. [ ]: non-standard residue; d: D form. Tle = CC(C)(C)[C@H](N)C(=O)O; Aib = CC(C)(N)C(=O)O

Key:
[1] = Stability in human plasma assessed as parent compound remaining after 24 hrs; format: ADME, cell-free; details: read-out: Stability
[2] = Stability in mouse plasma assessed as parent compound remaining after 24 hrs; format: ADME, cell-free; details: read-out: Stability
[3] = molecular target: T1, Tissue factor pathway inhibitor (Homo sapiens, UniProt P10646); assay: Binding affinity to TFPI (unknown origin) incubated for […] using tracer peptide JBT0131 by screening ELISA
T1 sequence (P10646 whole entry): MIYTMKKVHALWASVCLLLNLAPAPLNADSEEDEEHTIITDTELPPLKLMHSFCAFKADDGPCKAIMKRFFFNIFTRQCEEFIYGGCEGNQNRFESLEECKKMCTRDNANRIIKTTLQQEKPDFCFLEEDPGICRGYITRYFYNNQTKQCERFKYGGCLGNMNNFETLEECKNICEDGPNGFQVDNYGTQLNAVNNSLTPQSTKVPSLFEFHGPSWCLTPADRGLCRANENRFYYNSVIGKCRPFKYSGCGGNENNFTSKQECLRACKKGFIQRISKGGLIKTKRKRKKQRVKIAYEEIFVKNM

Compound | IC50 [3] [µM] | remaining at 24 h [1] [%] | remaining at 24 h [2] [%]
CC(C)C[C@H](NC(=O)[C@H](CCCCN)NC(=O)[C@H](C)NC(=O)C(C)(C)NC(=O)[C@H](CC(C)C)NC(=O)[C@H](CCCNC(=N)N)NC(=O)[C@H](CCC(=O)O)NC(=O)[C@H](Cc1ccccc1)NC(=O)[C@H](Cc1ccc(O)cc1)NC(=O)[C@@H](C)NC(=O)[C@H](CC(=O)O)NC(=O)[C@@H](NC(=O)[C@H](Cc1cnc[nH]1)NC(=O)[C@@H](NC(=O)[C@H](CC(N)=O)NC(=O)[C@H]1CCCN1C(=O)[C@H](CCCCN)NC(=O)[C@H](CO)NC(=O)[C@H](CCC(N)=O)NC(=O)[C@H](Cc1ccccc1)NS(=O)(=O)c1cccc2ccccc12)C(C)C)C(C)(C)C)C(N)=O |  | 107 | 52
CC(=O)N[C@@H](Cc1ccccc1)C(=O)N[C@@H](CCC(N)=O)C(=O)N[C@@H](CO)C(=O)N[C@@H](CCCCN)C(=O)N1CCC[C@@H]1C(=O)N[C@@H](CC(N)=O)C(=O)N[C@H](C(=O)N[C@@H](Cc1cnc[nH]1)C(=O)N[C@H](C(=O)N1CCC[C@H]1C(=O)N[C@H](CS)C(=O)N[C@@H](Cc1ccc(O)cc1)C(=O)N[C@@H](Cc1csc2ccccc12)C(=O)N[C@@H](CCS)C(=O)N[C@@H](CCCNC(=N)N)C(=O)N[C@@H](CC(C)C)C(=O)NC(C)(C)C(=O)N[C@H](C)C(=O)N[C@@H](CCCCN)C(=O)N[C@@H](CC(C)C)C(N)=O)C(C)C)C(C)C |  | 77.7 | 28.3
CC(=O)N[C@@H](Cc1ccccc1)C(=O)N[C@@H](CCC(N)=O)C(=O)N[C@@H](CO)C(=O)N[C@@H](CCCCN)C(=O)N1CCC[C@@H]1C(=O)N[C@@H](CC(N)=O)C(=O)N[C@H](C(=O)N[C@@H](Cc1cnc[nH]1)C(=O)N[C@H](C(=O)N[C@@H](CC(=O)O)C(=O)N[C@H](C)C(=O)N[C@@H](Cc1ccc(O)cc1)C(=O)N[C@@H](Cc1ccccc1)C(=O)N[C@@H](CCC(=O)O)C(=O)N[C@@H](CCCNC(=N)N)C(=O)N[C@@H](CC(C)C)C(=O)NC(C)(C)C(=O)N[C@@H]1CSSCCNC(=O)[C@H](CC(C)C)NC(=O)[C@H](CCCCN)NC1=O)C(C)(C)C)C(C)C |  | 12.1 | 34.3
CCCCCC(=O)N[C@@H](Cc1ccccc1)C(=O)N[C@@H](CCC(N)=O)C(=O)N[C@@H](CO)C(=O)N[C@@H](CCCCN)C(=O)N1CCC[C@@H]1C(=O)N[C@@H](CC(N)=O)C(=O)N[C@H](C(=O)N[C@@H](Cc1cnc[nH]1)C(=O)N[C@H](C(=O)N[C@@H](CC(=O)O)C(=O)N[C@H](C)C(=O)N[C@@H](Cc1ccc(O)cc1)C(=O)N[C@@H](Cc1ccccc1)C(=O)N[C@@H](CCC(=O)O)C(=O)N[C@@H](CCCNC(=N)N)C(=O)N[C@@H](CC(C)C)C(=O)NC(C)(C)C(=O)N[C@@H](C)C(=O)N[C@@H](CCCCN)C(=O)N[C@@H](CC(C)C)C(N)=O)C(C)(C)C)C(C)C |  | 97.4 | 39.9
CC(=O)N[C@@H](Cc1ccccc1)C(=O)N[C@@H](CCC(N)=O)C(=O)N[C@@H](CO)C(=O)N[C@@H](CCCCN)C(=O)N1CCC[C@@H]1C(=O)N[C@@H](CC(N)=O)C(=O)N[C@H](C(=O)N[C@@H](Cc1cnc[nH]1)C(=O)N[C@H](C(=O)N[C@@H](CC(=O)O)C(=O)N[C@H](C)C(=O)N[C@@H](Cc1ccc(O)cc1)C(=O)N[C@@H](Cc1ccccc1)C(=O)N[C@@H](CCC(=O)O)C(=O)N[C@@H](CCCNC(=N)N)C(=O)N[C@@H](CC(C)C)C(=O)NC1(C(=O)N[C@@H](C)C(=O)N[C@@H](CCCCN)C(=O)N[C@@H](CC(C)C)C(N)=O)Cc2ccccc2C1)C(C)(C)C)C(C)C |  | 104 | 53
CC(=O)N[C@@H](Cc1ccccc1)C(=O)N[C@@H](CCC(N)=O)C(=O)N[C@@H](CO)C(=O)N[C@@H](CCCCN)C(=O)N1CCC[C@@H]1C(=O)N[C@@H](CC(N)=O)C(=O)N[C@H](C(=O)N[C@@H](Cc1cnc[nH]1)C(=O)N[C@H](C(=O)N[C@@H](CC(=O)O)C(=O)NCC(=O)N[C@@H](Cc1ccc(O)cc1)C(=O)N[C@@H](Cc1ccccc1)C(=O)N[C@@H](CCC(=O)O)C(=O)N[C@@H](CCCNC(=N)N)C(=O)N[C@@H](CC(C)C)C(=O)NC(C)(C)C(=O)N[C@@H](C)C(=O)N[C@@H](CCCCN)C(=O)N[C@@H](CC(C)C)C(N)=O)C(C)(C)C)C(C)C (Ac-FQSK[dP]NVH[Tle]DGYFERL[Aib]AKL-NH2) |  | 81.9 | 42.6
CC(=O)N[C@@H](Cc1ccccc1)C(=O)N[C@@H](CCC(N)=O)C(=O)N[C@@H](CO)C(=O)N[C@@H](CCCCN)C(=O)N1CCC[C@@H]1C(=O)N[C@@H](CC(N)=O)C(=O)N[C@H](C(=O)N[C@@H](Cc1cnc[nH]1)C(=O)N[C@H](C(=O)N[C@@H](CC(=O)O)C(=O)N[C@H](C)C(=O)N[C@@H](Cc1ccc(O)cc1)C(=O)N[C@@H](Cc1ccccc1)C(=O)N[C@@H](CCC(=O)O)C(=O)N[C@@H](CCCNC(=N)N)C(=O)N[C@@H](CC(C)C)C(=O)NC(C)(C)C(=O)NC(C)(C)C(=O)N[C@@H](CCCCN)C(=O)N[C@@H](CC(C)C)C(N)=O)C(C)(C)C)C(C)C |  | 99.2 | 85.9
CC(=O)N[C@@H](Cc1ccccc1)C(=O)N[C@@H](CCC(N)=O)C(=O)N[C@@H](CO)C(=O)N[C@@H](CCCCN)C(=O)N1CCC[C@@H]1C(=O)N[C@@H](CC(N)=O)C(=O)N[C@H](C(=O)N[C@@H](Cc1cnc[nH]1)C(=O)N[C@H](C(=O)N[C@@H](CC(=O)O)C(=O)NCC(=O)N[C@@H](Cc1ccc(O)cc1)C(=O)N[C@@H](Cc1cccc2ccccc12)C(=O)N[C@@H](CCC(=O)O)C(=O)N[C@@H](CCCNC(=N)N)C(=O)N[C@@H](CC(C)C)C(=O)NC(C)(C)C(=O)N[C@@H](C)C(=O)N[C@@H](CCCCN)C(=O)N[C@@H](CC(C)C)C(N)=O)C(C)C)C(C)C |  |  | 6.3
COc1ccc(C[C@H](NC(=O)CNC(=O)[C@H](CC(=O)O)NC(=O)[C@@H](NC(=O)[C@H](Cc2cnc[nH]2)NC(=O)[C@@H](NC(=O)[C@H](CC(N)=O)NC(=O)[C@H]2CCCN2C(=O)[C@H](CCCCN)NC(=O)[C@H](CO)NC(=O)[C@H](CCC(N)=O)NC(=O)[C@H](Cc2ccccc2)NC(C)=O)C(C)C)C(C)C)C(=O)N[C@@H](Cc2ccccc2)C(=O)N[C@@H](CCC(=O)O)C(=O)N[C@@H](CCCNC(=N)N)C(=O)N[C@@H](CC(C)C)C(=O)NC(C)(C)C(=O)N[C@@H](C)C(=O)N[C@@H](CCCCN)C(=O)N[C@@H](CC(C)C)C(N)=O)cc1 |  |  | 7.3
CC(=O)N[C@@H](Cc1ccccc1)C(=O)N[C@@H](CCC(N)=O)C(=O)N[C@@H](CO)C(=O)N[C@@H](CCCCN)C(=O)N1CCC[C@@H]1C(=O)N[C@@H](CC(N)=O)C(=O)N[C@H](C(=O)N[C@@H](Cc1cnc[nH]1)C(=O)N[C@H](C(=O)N[C@@H](CC(=O)O)C(=O)NCC(=O)N[C@@H](Cc1ccc(O)cc1)C(=O)N[C@@H](Cc1ccccc1)C(=O)N[C@@H](CCC(=O)O)C(=O)N[C@@H](CCCNC(=N)N)C(=O)N[C@@H](CC(C)C)C(=O)NC(C)(C)C(=O)N[C@@H](C)C(=O)N[C@@H](CCCCN)C(=O)N[C@@H](CC(C)C)C(N)=O)C(C)C)C1CCCCC1 |  |  | 4.1
CC(=O)N[C@@H](Cc1ccccc1)C(=O)N[C@@H](CCC(N)=O)C(=O)N[C@@H](CO)C(=O)N[C@@H](CCCCN)C(=O)N1CCC[C@@H]1C(=O)N[C@@H](CC(N)=O)C(=O)N[C@H](C(=O)N[C@@H](Cc1cnc[nH]1)C(=O)N[C@H](C(=O)N[C@@H](CC(=O)O)C(=O)N[C@H](C)C(=O)N[C@@H](Cc1ccc(O)cc1)C(=O)N[C@@H](Cc1ccccc1)C(=O)N[C@@H](CCC(=O)O)C(=O)N[C@@H](CCCNC(=N)N)C(=O)N[C@H]1CCSSCC[C@@H](C(N)=O)NC(=O)[C@H](CCCCN)NC(=O)[C@H](C)NC(=O)C(C)(C)NC1=O)C(C)(C)C)C(C)C |  |  | 65.5
CCC(CC)(NC(=O)[C@H](CC(C)C)NC(=O)[C@H](CCCNC(=N)N)NC(=O)[C@H](CCC(=O)O)NC(=O)[C@H](Cc1ccccc1)NC(=O)[C@H](Cc1ccc(O)cc1)NC(=O)[C@@H](C)NC(=O)[C@H](CC(=O)O)NC(=O)[C@@H](NC(=O)[C@H](Cc1cnc[nH]1)NC(=O)[C@@H](NC(=O)[C@H](CC(N)=O)NC(=O)[C@H]1CCCN1C(=O)[C@H](CCCCN)NC(=O)[C@H](CO)NC(=O)[C@H](CCC(N)=O)NC(=O)[C@H](Cc1ccccc1)NC(C)=O)C(C)C)C(C)(C)C)C(=O)N[C@@H](C)C(=O)N[C@@H](CCCCN)C(=O)N[C@@H](CC(C)C)C(N)=O |  |  | 62.9

Continued, in another order:

IC50 [3] [µM] | Compound | remaining at 24 h [1] [%] | remaining at 24 h [2] [%]
> 5 | CC(=O)N[C@@H](Cc1ccccc1)C(=O)N[C@@H](CCC(N)=O)C(=O)N[C@@H](CO)C(=O)N[C@@H](CCCCN)C(=O)NCC(=O)N[C@@H](CC(N)=O)C(=O)N[C@H](C(=O)N[C@@H](Cc1ccccc1)C(=O)N[C@H](C(=O)N[C@@H](CC(=O)O)C(=O)NCC(=O)N[C@@H](Cc1ccc(O)cc1)C(=O)N[C@@H](Cc1ccccc1)C(=O)N[C@@H](CCC(=O)O)C(=O)NC(C)(C)C(=O)N[C@@H](CC(C)C)C(=O)NC(C)(C)C(=O)N[C@@H](C)C(=O)N[C@@H](CCCCN)C(=O)N[C@@H](CC(C)C)C(N)=O)C(C)C)C(C)C (Ac-FQSKGNVFVDGYFE[Aib]L[Aib]AKL-NH2) |  | 
< 0.05 | Ac-FQSKHHVFVDGYFERLCAKL-NH2 |  | 
> 5 | Ac-FQSFKNVFVFGYFERLRAKL-NH2 |  | 
> 5 | Ac-FQSKKLVFVFGYFERLRAKL-NH2 |  | 
> 1.67 | Ac-FQSLKNVFVFGYFERLRAKL-NH2 |  | 
> 1.67 | Ac-FQSKKNVFVFFYFERLRAKL-NH2 |  | 
> 5 | Ac-FQLKKNVFVFGYFERLRAKL-NH2 |  | 
> 5 | Ac-FQSKKNVFDFGYFERLRAKL-NH2 |  | 
> 5 | Ac-FQSKKNDFVFGYFERLRAKL-NH2 |  | 
> 5 | Ac-FQSKKNVFVFGYFEFLRAKL-NH2 |  | 
> 5 | Ac-FQSKKNVFVFGYFERLRAFL-NH2 |  | 
> 5 | Ac-FQSKKNVFVFGYFERLRFKL-NH2 |  | 
> 5 | Ac-FQSKKNYDVFGYFERLRAKL-NH2 |  | 
